For 1 compound, IC50 and Activity results are on record in ChEMBL document CHEMBL4321837, “Discovery of Potent and Orally Effective Dual Janus Kinase 2/FLT3 Inhibitors for the Treatment of Acute Myelogenous Leukemia and Myeloproliferative Neoplasms” (J Med Chem, 2019).

Structures are written as SMILES.

One series concerns MV4-11. As to the kind of experiment: Antiproliferative activity against FLT3-ITD-positive human MV4-11 cells assessed as reduction in cell growth after 72 hrs by MTT assay. Particulars: MV4-11, 72 h. Type of series: functional, cell-based.
The nature of series [1]: Cytotoxicity against rat H9c2(2-1) cells assessed as cell viability after 72 hrs by MTT assay. Type of series: cell-based.
In series [2] the target is T1, Tyrosine-protein kinase JAK3 (Homo sapiens, UniProt P52333).
T1 sequence (P52333 whole entry): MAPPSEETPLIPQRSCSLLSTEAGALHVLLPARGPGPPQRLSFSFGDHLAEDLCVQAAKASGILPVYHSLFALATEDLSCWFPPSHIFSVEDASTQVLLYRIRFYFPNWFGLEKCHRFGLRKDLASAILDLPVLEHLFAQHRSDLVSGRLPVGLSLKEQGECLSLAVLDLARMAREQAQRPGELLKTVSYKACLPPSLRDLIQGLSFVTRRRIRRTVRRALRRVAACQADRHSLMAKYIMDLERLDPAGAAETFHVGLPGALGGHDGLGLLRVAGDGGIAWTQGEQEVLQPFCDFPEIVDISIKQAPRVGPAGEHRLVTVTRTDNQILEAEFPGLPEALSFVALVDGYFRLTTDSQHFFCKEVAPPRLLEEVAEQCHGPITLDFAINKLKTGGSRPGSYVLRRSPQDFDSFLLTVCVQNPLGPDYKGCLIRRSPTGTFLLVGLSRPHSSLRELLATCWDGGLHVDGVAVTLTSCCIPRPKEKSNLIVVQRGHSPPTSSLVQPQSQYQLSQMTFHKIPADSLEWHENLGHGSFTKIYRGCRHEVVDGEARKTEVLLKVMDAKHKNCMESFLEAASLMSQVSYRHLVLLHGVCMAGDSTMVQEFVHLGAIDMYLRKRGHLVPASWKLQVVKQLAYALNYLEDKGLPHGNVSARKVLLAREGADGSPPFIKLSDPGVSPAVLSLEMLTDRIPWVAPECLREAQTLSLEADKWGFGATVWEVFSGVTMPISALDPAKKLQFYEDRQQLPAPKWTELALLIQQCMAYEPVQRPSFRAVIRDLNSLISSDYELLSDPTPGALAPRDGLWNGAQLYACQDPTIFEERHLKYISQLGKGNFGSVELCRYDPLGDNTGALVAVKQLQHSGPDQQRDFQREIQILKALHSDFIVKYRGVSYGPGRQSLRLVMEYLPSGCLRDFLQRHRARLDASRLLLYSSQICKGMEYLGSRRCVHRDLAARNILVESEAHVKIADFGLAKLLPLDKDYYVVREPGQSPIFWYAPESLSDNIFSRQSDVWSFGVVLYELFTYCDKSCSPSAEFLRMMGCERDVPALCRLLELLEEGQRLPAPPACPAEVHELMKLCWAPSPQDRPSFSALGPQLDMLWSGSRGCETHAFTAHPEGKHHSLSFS
As to the kind of experiment: Inhibition of human JAK3 (781 to end residues) using GGEEEEYFELVKK as substrate after 40 mins in presence of [gamma33P]-ATP by scintillation counting based radiometric assay.

The target of a further series is CDK4/Cyclin D3 (Homo sapiens, UniProt P11802). Description: Inhibition of recombinant full length human CDK4/CyclinD3 using Rb fragment as substrate incubated for 30 mins in presence of [gamma33P]-ATP by scintillation counting based radiometry assay. The class given is protein-complex assay.
Sequence of CDK4/Cyclin D3 (P11802 whole entry, the tested form may be a part): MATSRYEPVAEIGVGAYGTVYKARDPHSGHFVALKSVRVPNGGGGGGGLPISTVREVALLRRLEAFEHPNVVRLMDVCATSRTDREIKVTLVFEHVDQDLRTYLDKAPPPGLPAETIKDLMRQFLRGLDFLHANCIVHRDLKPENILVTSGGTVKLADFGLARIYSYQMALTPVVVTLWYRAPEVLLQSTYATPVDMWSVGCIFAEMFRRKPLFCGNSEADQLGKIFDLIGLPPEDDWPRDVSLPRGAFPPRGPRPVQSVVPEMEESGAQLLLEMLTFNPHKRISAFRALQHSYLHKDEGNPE
Sequence of CDK4/Cyclin D3 (P30281 whole entry, further chain, the tested form may be a part): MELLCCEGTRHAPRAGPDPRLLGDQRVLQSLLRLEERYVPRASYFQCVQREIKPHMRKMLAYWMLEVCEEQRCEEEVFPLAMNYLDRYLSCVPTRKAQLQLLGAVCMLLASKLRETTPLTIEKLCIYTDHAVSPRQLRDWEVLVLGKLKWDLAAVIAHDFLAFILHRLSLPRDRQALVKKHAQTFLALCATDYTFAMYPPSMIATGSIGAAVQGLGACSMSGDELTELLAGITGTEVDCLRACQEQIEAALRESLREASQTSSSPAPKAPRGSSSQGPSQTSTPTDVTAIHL

Take `Cc1cnc(Nc2ccc(N3CCC(N(C)CCO)CC3)c(F)c2)nc1-c1cnn(C(C)C)c1`: the values for the IC50 (with MV4-11; in series [2]; on CDK4/Cyclin D3) were 5.3 nM, 39 nM and 18 nM, respectively. Besides, the Activity entry in series [1] was “Non-Toxic”.
